Patent US20240270762A1, “PENICILLIN-BINDING PROTEIN INHIBITORS” (priority 2021, published 2024)
Values after ≈ are worked out from the molar mass of the structure shown.

How the values were obtained:
[1] = biological target: T1, PBP3 from Escherichia coli (K-12) (Escherichia coli, UniProt P0AD68); experiment: Bocillin-FL fluorescence polarization competition binding, E. coli PBP3
T1 construct: made in house
Method in brief: (§1)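 Purified PBP was preincubated with inhibitor (E. coli PBP3 1.5 μM, 30 min; P. aeruginosa PBP3 0.75 μM, A. baumannii PBP3 0.2 μM and PBP1a 1 μM, 15 min), then Bocillin-FL (0.1 μM; 0.05 μM for PBP1a) added and FP read up to 60 min. EC50 = 50% loss of bound probe.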

[2] = biological target: T2, PBP3 from Pseudomonas aeruginosa (PAO1) (Pseudomonas aeruginosa, UniProt G3XD46); experiment: Bocillin-FL fluorescence polarization competition binding, P. aeruginosa PBP3; settings: Binding affinity to P. aeruginosa PBP3; fluorescence polarization competition binding assay using Bocillin-FL; read-out: P. aeruginosa PBP3 Potency
T2 construct: made in house
T2 sequence (G3XD46 whole entry): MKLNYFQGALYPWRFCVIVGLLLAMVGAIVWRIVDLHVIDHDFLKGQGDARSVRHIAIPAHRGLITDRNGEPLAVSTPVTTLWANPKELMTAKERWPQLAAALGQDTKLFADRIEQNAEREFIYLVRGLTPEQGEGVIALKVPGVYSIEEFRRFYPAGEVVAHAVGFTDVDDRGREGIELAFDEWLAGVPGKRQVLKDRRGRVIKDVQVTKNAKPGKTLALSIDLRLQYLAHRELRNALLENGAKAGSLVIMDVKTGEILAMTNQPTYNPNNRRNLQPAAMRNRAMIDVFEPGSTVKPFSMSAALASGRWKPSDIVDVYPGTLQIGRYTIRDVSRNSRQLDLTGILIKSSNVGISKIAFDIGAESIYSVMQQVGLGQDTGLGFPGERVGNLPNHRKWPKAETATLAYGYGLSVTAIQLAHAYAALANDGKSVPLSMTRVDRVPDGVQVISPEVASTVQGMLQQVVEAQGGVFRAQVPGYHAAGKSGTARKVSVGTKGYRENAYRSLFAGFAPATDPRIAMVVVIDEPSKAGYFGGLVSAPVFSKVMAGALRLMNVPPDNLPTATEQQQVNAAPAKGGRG
Method in brief: as §1

[3] = tested on: A. baumannii ATCC 19606; experiment: microbe, parasite or virus in culture; type: cell-based; settings: Acinetobacter baumannii, ATCC19606, read-out: MIC, A. baumannii ATCC 19606
[4] = tested on: P. aeruginosa ATCC 35151; experiment: microbe, parasite or virus in culture; type: cell-based; settings: Pseudomonas aeruginosa, ATCC35151, read-out: Minimum inhibitory concentration, P. aeruginosa ATCC 35151
[5] = tested on: P. aeruginosa (ΔmexAB-oprM); experiment: Broth microdilution MIC in iron-depleted CAMHB (IDM); type: cell-based; settings: Pseudomonas aeruginosa; iron-depleted CAMHB (IDM); […]; read-out: Minimum inhibitory concentration, P. aeruginosa ΔmexAB-oprM
[6] = tested on: P. aeruginosa CDC-0090; experiment: microbe, parasite or virus in culture; type: cell-based; settings: Pseudomonas aeruginosa, CDC0090, read-out: Minimum inhibitory concentration, P. aeruginosa CDC-0090
[7] = tested on: A. baumannii CDC-0083; experiment: microbe, parasite or virus in culture; type: cell-based; settings: Acinetobacter baumannii, CDC0083, read-out: MIC, A. baumannii CDC-0083
[8] = tested on: B. humptydooensis ATCC BAA-2767; experiment: microbe, parasite or virus in culture; type: cell-based; settings: Burkholderia humptydooensis, ATCCBAA2767, read-out: Minimum inhibitory concentration (MIC), B. humptydooensis ATCC BAA-2767
[9] = tested on: N. gonorrhoeae FA1090; experiment: Liquid broth MIC in Fastidious broth; settings: Neisseria gonorrhoeae, FA1090, read-out: Minimum Inhibitory Concentration (MIC), N. gonorrhoeae FA 1090
[10] = tested on: N. gonorrhoeae WHO L; experiment: Liquid broth MIC in Fastidious broth; settings: Neisseria gonorrhoeae, read-out: Minimum Inhibitory Concentration (MIC), N. gonorrhoeae WHO L
Description: Liquid broth-based assays were used for antibacterial testing of PBP inhibitors in Neisseria gonorrhoeae. Briefly, cryo-preserved bacterial cultures of clinical strains were streaked for isolation on Chocolate Agar (72 g/L (2×) GC Agar Base (BD #228950) and 2% (2×) Hemoglobin was autoclaved at 121° C. for 20 minutes to sterilize. Once cooled to ˜50° C. the 2×GC Agar Base and 2× Hemoglobin solutions are combined and 1% IsoVitaleX Enrichment (BD #211876) was added to the solution). Strains were incubated at 36° C. and 5% CO2 to allow growth of colonies, 24 hours before inoculum preparation. 2-fold serial dilutions of test compounds were conducted in a 96 well plate with a final volume of 75 μL per well at 2-fold the final desired concentration in Fastidious broth (Remel #R07664). For preparation of assay inoculum, a direct suspension was prepared by aseptically swabbing 10-15 colonies from agar plates into culture tubes containing 2 mL of fresh sterile saline. After the dilution plates were set up, direct suspensions were then diluted in a cuvette containing sterile saline and the optical density was measured at 600 nm. Inocula were diluted such that 75 μL of this culture in Fastidious broth results in a starting bacterial concentration of 5×10^5 CFU/mL when added to the dilution plates. The plates were incubated for ˜24 hours at 36° C. and 5% CO2.

[11] = tested on: N. gonorrhoeae WHO M; experiment: Liquid broth MIC in Fastidious broth; settings: Neisseria gonorrhoeae, read-out: Minimum Inhibitory Concentration (MIC), N. gonorrhoeae WHO M
[12] = tested on: N. gonorrhoeae WHO K; experiment: Liquid broth MIC in Fastidious broth; settings: Neisseria gonorrhoeae, read-out: Minimum Inhibitory Concentration (MIC), N. gonorrhoeae WHO K
[13] = tested on: N. gonorrhoeae WHO X; experiment: Liquid broth MIC in Fastidious broth; settings: Neisseria gonorrhoeae, read-out: Minimum Inhibitory Concentration (MIC), N. gonorrhoeae WHO X
[14] = tested on: N. gonorrhoeae WHO Z; experiment: Liquid broth MIC in Fastidious broth; settings: Neisseria gonorrhoeae, read-out: Minimum Inhibitory Concentration (MIC), N. gonorrhoeae WHO Z
[15] = tested on: N. gonorrhoeae CDC-0197; experiment: Liquid broth MIC in Fastidious broth; settings: Neisseria gonorrhoeae, CDC0197, read-out: Minimum Inhibitory Concentration (MIC), N. gonorrhoeae CDC-0197

T1 sequence (P0AD68 1-577): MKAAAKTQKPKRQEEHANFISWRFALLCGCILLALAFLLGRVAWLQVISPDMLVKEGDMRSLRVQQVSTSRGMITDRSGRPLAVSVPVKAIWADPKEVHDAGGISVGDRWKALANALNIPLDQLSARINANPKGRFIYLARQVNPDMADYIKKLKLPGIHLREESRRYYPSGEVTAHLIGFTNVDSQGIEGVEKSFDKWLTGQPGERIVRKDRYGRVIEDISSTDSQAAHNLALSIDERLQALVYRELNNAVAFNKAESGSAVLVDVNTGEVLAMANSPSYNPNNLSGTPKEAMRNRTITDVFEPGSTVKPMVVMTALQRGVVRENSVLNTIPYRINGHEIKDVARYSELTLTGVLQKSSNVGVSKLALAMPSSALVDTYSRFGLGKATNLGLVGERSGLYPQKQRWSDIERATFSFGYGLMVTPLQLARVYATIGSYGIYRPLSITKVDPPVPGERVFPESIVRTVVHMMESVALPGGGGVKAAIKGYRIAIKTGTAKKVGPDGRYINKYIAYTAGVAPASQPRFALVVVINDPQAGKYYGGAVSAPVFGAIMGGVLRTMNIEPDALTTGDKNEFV

## CN(CCN1CCN(C(=O)N[C@@H](C(=O)N[C@H]2Cc3ccc(F)c(C(=O)O)c3OB2O)c2cc(F)c(O)c(O)c2Cl)C(=O)C1=O)Cc1nccs1 [Example 200, (R)-3-((R)-2-(2-chloro-5-fluoro-3,4-dihydroxyphenyl)-2-(4-(2-(methyl(thiazol-2-ylmethyl)amino)ethyl)-2,3-dioxopiperazine-1-carboxamido)acetamido)-7-fluoro-2-hydroxy-3,4-dihydro-2H-benzo[e][1,2]oxaborinine-8-carboxylic acid]
[1]
  EC50: 10 to 50 µM
[2]
  IC50: < 10 µM
[3]
  MIC: < 1 µg/mL
[4]
  MIC: < 1 µg/mL
[5]
  MIC: < 1 µg/mL
[6]
  MIC: < 1 µg/mL
[7]
  MIC: < 1 µg/mL
[8]
  MIC: < 1 µg/mL
[9]
  MIC: 1 to 2 µg/mL (≈ 1.36 to 2.71 µM)
[10]
  MIC: > 64 µg/mL
[11]
  MIC: 4 to 8 µg/mL (≈ 5.43 to 10.9 µM)
[12]
  MIC: 16 to 32 µg/mL (≈ 21.7 to 43.4 µM)
[13]
  MIC: > 64 µg/mL
[14]
  MIC: 16 to 32 µg/mL (≈ 21.7 to 43.4 µM)
[15]
  MIC: > 64 µg/mL

## CN(CCN1CCN(C(=O)N[C@@H](C(=O)N[C@H]2Cc3ccc(F)c(C(=O)O)c3OB2O)c2cc(F)c(O)c(O)c2Cl)C(=O)C1=O)Cc1cccnc1 [Example 201, (R)-3-((R)-2-(2-chloro-5-fluoro-3,4-dihydroxyphenyl)-2-(4-(2-(methyl(pyridin-3-ylmethyl)amino)ethyl)-2,3-dioxopiperazine-1-carboxamido)acetamido)-7-fluoro-2-hydroxy-3,4-dihydro-2H-benzo[e][1,2]oxaborinine-8-carboxylic acid]
[1]
  EC50: < 10 µM
[2]
  IC50: < 10 µM
[3]
  MIC: < 1 µg/mL
[4]
  MIC: < 1 µg/mL
[5]
  MIC: < 1 µg/mL
[6]
  MIC: < 1 µg/mL
[7]
  MIC: < 1 µg/mL
[8]
  MIC: < 1 µg/mL
[9]
  MIC: 1 to 2 µg/mL (≈ 1.37 to 2.74 µM)
[10]
  MIC: > 64 µg/mL
[11]
  MIC: 4 to 8 µg/mL (≈ 5.47 to 10.9 µM)
[12]
  MIC: 16 to 32 µg/mL (≈ 21.9 to 43.8 µM)
[13]
  MIC: > 64 µg/mL
[14]
  MIC: > 64 µg/mL
[15]
  MIC: > 64 µg/mL

## CN(CCN1CCN(C(=O)N[C@@H](C(=O)N[C@H]2Cc3ccc(F)c(C(=O)O)c3OB2O)c2cc(F)c(O)c(O)c2Cl)C(=O)C1=O)Cc1cncc(O)c1 [Example 208, (R)-3-((R)-2-(2-chloro-5-fluoro-3,4-dihydroxyphenyl)-2-(4-(2-(((5-hydroxypyridin-3-yl)methyl)(methyl)amino)ethyl)-2,3-dioxopiperazine-1-carboxamido)acetamido)-7-fluoro-2-hydroxy-3,4-dihydro-2H-benzo[e][1,2]oxaborinine-8-carboxylic acid]
[1]
  EC50: < 10 µM
[3]
  MIC: < 1 µg/mL
[4]
  MIC: < 1 µg/mL
[5]
  MIC: < 1 µg/mL
[6]
  MIC: < 1 µg/mL
[7]
  MIC: < 1 µg/mL
[8]
  MIC: < 1 µg/mL
[9]
  MIC: 1 to 2 µg/mL (≈ 1.34 to 2.68 µM)
[10]
  MIC: > 64 µg/mL
[11]
  MIC: 4 to 8 µg/mL (≈ 5.36 to 10.7 µM)
[12]
  MIC: 16 to 32 µg/mL (≈ 21.4 to 42.8 µM)
[13]
  MIC: > 64 µg/mL
[14]
  MIC: 16 to 32 µg/mL (≈ 21.4 to 42.8 µM)
[15]
  MIC: 16 to 32 µg/mL (≈ 21.4 to 42.8 µM)

## CN(CCN1CCN(C(=O)N[C@@H](C(=O)N[C@H]2Cc3ccc(F)c(C(=O)O)c3OB2O)c2cc(F)c(O)c(O)c2Cl)C(=O)C1=O)Cc1ccc(N)nc1 [Example 209, (R)-3-((R)-2-(4-(2-(((6-aminopyridin-3-yl)methyl)(methyl)amino)ethyl)-2,3-dioxopiperazine-1-carboxamido)-2-(2-chloro-5-fluoro-3,4-dihydroxyphenyl)acetamido)-7-fluoro-2-hydroxy-3,4-dihydro-2H-benzo[e][1,2]oxaborinine-8-carboxylic acid]
[1]
  EC50: < 10 µM
[3]
  MIC: < 1 µg/mL
[4]
  MIC: < 1 µg/mL
[5]
  MIC: < 1 µg/mL
[6]
  MIC: < 1 µg/mL
[7]
  MIC: < 1 µg/mL
[8]
  MIC: < 1 µg/mL
[9]
  MIC: 1 to 2 µg/mL (≈ 1.34 to 2.68 µM)
[10]
  MIC: > 64 µg/mL
[11]
  MIC: 4 to 8 µg/mL (≈ 5.36 to 10.7 µM)
[12]
  MIC: > 64 µg/mL
[13]
  MIC: > 64 µg/mL
[14]
  MIC: 16 to 32 µg/mL (≈ 21.5 to 42.9 µM)
[15]
  MIC: 16 to 32 µg/mL (≈ 21.5 to 42.9 µM)

## O=C(NCCCN1CCN(C(=O)NC(C(=O)N[C@H]2Cc3ccc(F)c(C(=O)O)c3OB2O)c2cc(F)c(O)c(O)c2Cl)C(=O)C1=O)c1nccs1 (stereo partly drawn) [Example 211, (3R)-3-(2-(2-chloro-5-fluoro-3,4-dihydroxyphenyl)-2-(2,3-dioxo-4-(3-(thiazole-2-carboxamido)propyl)piperazine-1-carboxamido)acetamido)-7-fluoro-2-hydroxy-3,4-dihydro-2H-benzo[e][1,2]oxaborinine-8-carboxylic acid]
[1]
  EC50: < 10 µM
[3]
  MIC: < 1 µg/mL
[4]
  MIC: < 1 µg/mL
[5]
  MIC: < 1 µg/mL
[6]
  MIC: < 1 µg/mL
[7]
  MIC: < 1 µg/mL
[8]
  MIC: < 1 µg/mL
[9]
  MIC: 1 to 2 µg/mL (≈ 1.33 to 2.66 µM)
[10]
  MIC: > 64 µg/mL
[11]
  MIC: 16 to 32 µg/mL (≈ 21.3 to 42.6 µM)
[12]
  MIC: > 64 µg/mL
[13]
  MIC: > 64 µg/mL
[14]
  MIC: 16 to 32 µg/mL (≈ 21.3 to 42.6 µM)
[15]
  MIC: 16 to 32 µg/mL (≈ 21.3 to 42.6 µM)

## O=C(O)c1c(F)ccc2c1OB(O)[C@@H](NC(=O)C(NC(=O)N1CCN(CCCNC(=O)[C@@H]3CCCN3)C(=O)C1=O)c1cc(F)c(O)c(O)c1Cl)C2 (stereo partly drawn) [Example 212, (3R)-3-(2-(2-chloro-5-fluoro-3,4-dihydroxyphenyl)-2-(2,3-dioxo-4-(3-((S)-pyrrolidine-2-carboxamido)propyl)piperazine-1-carboxamido)acetamido)-7-fluoro-2-hydroxy-3,4-dihydro-2H-benzo[e][1,2]oxaborinine-8-carboxylic acid]
[1]
  EC50: 10 to 50 µM
[3]
  MIC: < 1 µg/mL
[4]
  MIC: < 1 µg/mL
[5]
  MIC: < 1 µg/mL
[6]
  MIC: < 1 µg/mL
[7]
  MIC: 32 to 64 µg/mL (≈ 43.4 to 86.9 µM)
[8]
  MIC: < 1 µg/mL
[9]
  MIC: 4 to 8 µg/mL (≈ 5.43 to 10.9 µM)
[10]
  MIC: > 64 µg/mL
[11]
  MIC: 16 to 32 µg/mL (≈ 21.7 to 43.4 µM)
[12]
  MIC: > 64 µg/mL
[13]
  MIC: > 64 µg/mL
[14]
  MIC: > 64 µg/mL
[15]
  MIC: 16 to 32 µg/mL (≈ 21.7 to 43.4 µM)

## O=C(NCCCN1CCN(C(=O)NC(C(=O)N[C@H]2Cc3ccc(F)c(C(=O)O)c3OB2O)c2cc(F)c(O)c(O)c2Cl)C(=O)C1=O)Nc1cccnc1 (stereo partly drawn) [Example 213, (3R)-3-(2-(2-chloro-5-fluoro-3,4-dihydroxyphenyl)-2-(2,3-dioxo-4-(3-(3-(pyridin-3-yl)ureido)propyl)piperazine-1-carboxamido)acetamido)-7-fluoro-2-hydroxy-3,4-dihydro-2H-benzo[e][1,2]oxaborinine-8-carboxylic acid]
[1]
  EC50: < 10 µM
[3]
  MIC: < 1 µg/mL
[4]
  MIC: < 1 µg/mL
[5]
  MIC: < 1 µg/mL
[6]
  MIC: 2 to 4 µg/mL (≈ 2.63 to 5.26 µM)
[7]
  MIC: 8 to 16 µg/mL (≈ 10.5 to 21.1 µM)
[8]
  MIC: < 1 µg/mL
[9]
  MIC: 1 to 2 µg/mL (≈ 1.32 to 2.63 µM)
[10]
  MIC: > 64 µg/mL
[11]
  MIC: 16 to 32 µg/mL (≈ 21.1 to 42.1 µM)
[12]
  MIC: > 64 µg/mL
[13]
  MIC: > 64 µg/mL
[14]
  MIC: > 64 µg/mL
[15]
  MIC: > 64 µg/mL
